Results: patent US20260008793A1, “IONIZABLE CATIONIC LIPIDS INCORPORATING SILICON” (ALDEXCHEM KFT., priority 2022, published 2026)

Columns and labels:
[1] = Encapsulation efficiency, RiboGreen RNA assay (Method A); format: physicochemical; settings: LNP formulated by Method A
Procedure: (§1) The synthesized lipids were tested in term of in vitro transfection efficacy and toxicity on HeLa cells. In order to perform the mentioned biological tests, appropriate LNPs had to be formulated from the synthesized lipids. The formulation technique was different in Method A and B. The particle size, PDI and zeta potential of resulting LNPs were determined by means of Dynamic Light Scattering technique (DLS). Prior to biological testing the encapsulation efficiency (EE) of the loaded LNPs was determined by using RiboGreen RNA assay. In case of Method A Luciferase-mRNA while in case of Method B GFP-mRNA was transfected into the cells. In parallel with the transfection experiments, toxicity of the investigated LNPs was determined, in case of Method A resazurin assay while in case of Method B MTT assay was used. In the case of some lipids, the apparent pKa in LNPs was determined by using TNS titration based on the method described: Angew Chem Int Ed Engl. 2012, 51 (34), 8529-8533, doi: 10.1002/anie.201203263).
• 1. Preparation of sample stock solutions: In the top row of the 96-well plate (Row A in the plate), add 297 μL of TE buffer pH 7.4 to a single well for each sample plus a single well for a PBS blank using a multichannel pipette. • 2. Add 3 μL of sample (at 0.5 mg/ml) to these wells for a final volume of 300 μL. Add 3 μL of PBS to the blank well. Pipette to mix. This is your stock solution for each sample. The final RNA concentration of these stock solutions should be approximately 4-7 μg/mL. • 3. mRNA-LNP sample setup: • a. Add 50 μL of TE buffer pH 7.5 to the two wells directly below each sample (Rows B and C in the plate). • b. Add 50 μL of sample stock solution from Row A into the wells in Rows B and C (this assay is run in duplicate. All liquid handling should be done using a multichannel pipette). • c. Add 50 μL of Triton buffer to the wells in Rows D and E (in the plate) below each sample. • d. Add 50 μL of sample stock solution from Row A into the wells in Rows D and E. • 4. RiboGreen RNA standard curve setup: Dilute the RNA standard to produce an RNA stock at a final concentration of 20 μg/mL in TE buffer pH 7.4. The final volume should be 150 μL. Set up a standard curve (in duplicate) as using the RNA stock (20 μg/mL siRNA), TE buffer pH 7.5, and Triton buffer according the Table 2 below.
• 5. Once samples and standard curve are plated, incubate the plate at 37° C. for 10 min to lyse mRNA-LNP in the presence of Triton X-100. • 6. Meanwhile, prepare RiboGreen Solution: Sum the total number of sample wells and standard curve wells. Add three to this number, and multiply the total by 100. This is the total volume, in μL, of RiboGreen Solution needed for this assay. In a 15 mL RNAse-free Falcon tube, dilute the RiboGreen Reagent 1:100 into TE buffer pH 7.5 to the total volume calculated. • 7. Addition of RiboGreen Solution and sample readings: Remove a 96-well plate from 37° C. incubator; let it cool to room temperature as RiboGreen binding is somewhat temperature dependent. Add 100 μL of RiboGreen Solution to each well. Pop any air bubbles with a needle. Read using fluorescent plate reader (excitation=480, emission=525). • 8. Sample analysis: Use the data generated by the RiboGreen standard curve to calculate the concentration of mRNA. Transfection Efficiency with Luciferase-mRNA (Method A)

HeLa cells = assay: Transfection efficiency with Luciferase-mRNA, Nano-Glo assay (Method A); format: cell-based; settings: 100 ng Luciferase (SecNLuc) mRNA, 24 h, luminescence
Procedure: as §1
• 1. Prepare mRNA solution by adding 100 ng mRNA (SecNLuc, #P009024, RiboPro) to 5 μl Opti-MEM • a. multiply by number of wells, include different concentrations and add 10% extra • b. a standard set-up we use is 100 ng-50 ng-10 ng mRNA/well in triplicate, which would need 528 ng mRNA (includes 10% extra)
• 2. (If applicable) Prepare different concentrations in Opti-MEM (for instance 100/50/10 ng). • 3. Add 10 μl to each well and mix carefully by pipetting. • 4. Mix by swirling the plate horizontally at modest speed. Reverse in direction 3 times. • 5. Incubate for 24 hours (incubator).
This protocol is applied to measure luciferase activity for secreted NanoLuc and is based on the protocol by Promega (Nano-Glo® Luciferase Assay System #N1110-1150). The protocol is designed for a 384-wells plate, but volumes can be changed accordingly for other plates.
• 1. Plate cells (HeLa) in 96-well plate, grow until 80% confluent and transfect with SecNanoLuc mRNA and incubate for the desired period (24 h). • 2. After incubation, the translated protein is accumulated in the medium. Transfer medium to a new plate or tubes • 3. Transfer 12 μl of each sample to a black-walled, clear-bottom 384-well plate • a. Black-walled plates are important to prevent shine-through of luminescence from other wells; alternatively, multiple wells between samples can be left empty • 4. Set-up plate reader • 5. Prepare the desired amount of Nano-Glo® Luciferase Assay Reagent by combining one volume of Nano-Glo® Luciferase Assay Substrate with 50 volumes of Nano-Glo® Luciferase Assay Buffer • a. composition: 100 mM MES pH 6; 1 mM EDTA; 0.5% NP-50; 150 mM KCl; 1 mM DTT; 35 mM Thiourea • b. Briefly spin tubes containing substrate in a microcentrifuge before use • 6. Add and mix (by pipetting) 12 μl Nano-Glo® Luciferase Assay Reagent per well • a. Wait approximately 3 minutes before measuring luminescence. […] Measure luminescence in plate reader using standard protocol luciferase (this includes mixing sample in plate reader)

Row | SMILES | EE (%) [1] | Transfection* (Method A = 100 ng mRNA) (HeLa cells)
1 | CCCCCCCCC(CCCCCC)C(=O)OCCCCCCN(CCCCO)CCCCCCOC(CCCCCCC)O[Si](C)(C)O[Si](C)(C)CCCCCCCC (stereo not shown) [Example 133, 15-heptyl-7-(4-hydroxybutyl)-17,17,19,19-tetramethyl-14,16,18-trioxa-7-aza-17,19-disilaheptacosyl 2-hexyldecanoate] | 97% | 73879.5
2 | CCCCCCCCOC(CCCCCN(CCCCO)CCCCCCOC(=O)C(CCCCCC)CCCCCCCC)O[Si](C)(C)O[Si](C)(C)OCCCCCCCC (stereo not shown) [Example 134, 6-((4-hydroxybutyl)(6-(octyloxy)-6-((1,1,3,3-tetramethyl-3-(octyloxy)disiloxaneyl)oxy)hexyl)amino)hexyl 2-hexyldecanoate] | 98% | 398528
3 | CCCCCCCCO[Si](C)(C)O[Si](C)(C)OC(CCCCCCC)OCCCCCCN(CCCCO)CCCCCCOC(=O)C(CCCCCC)CCCCCCCC (stereo not shown) [Example 135, 15-heptyl-7-(4-hydroxybutyl)-17,17,19,19-tetramethyl-14,16,18,20-tetraoxa-7-aza-17,19-disilaoctacosyl 2-hexyldecanoate] | 91% | 538348
4 | CCCCCCCCOC(CCCCCN(CCCCO)CCCCCCOC(=O)C(CCCCCC)CCCCCCCC)O[Si](C)(C)OCC(CCCCCC)CCCCCCCC (stereo not shown) [Example 136, 18-hexyl-7-(4-hydroxybutyl)-15,15-dimethyl-13-(octyloxy)-14,16-dioxa-7-aza-15-silahexacosyl 2-hexyldecanoate] | 90% | 61666
5 | CCCCCCCCC(CCCCCC)CO[Si](C)(C)OC(CCCCCCC)OCCCCCCN(CCCCO)CCCCCCOC(=O)C(CCCCCC)CCCCCCCC (stereo not shown) [Example 137, 15-heptyl-20-hexyl-7-(4-hydroxybutyl)-17,17-dimethyl-14,16,18-trioxa-7-aza-17-silaoctacosyl 2-hexyldecanoate] | 97% | 1713925
6 | CCCCCCCCOC(CCCCCCC)O[Si](C)(C)CCCCCCN(CCCCO)CCCCCCOC(=O)C(CCCCCC)CCCCCCCC (stereo not shown) [Example 138, 16-heptyl-7-(4-hydroxybutyl)-14,14-dimethyl-15,17-dioxa-7-aza-14-silapentacosyl 2-hexyldecanoate] | 95% | 1216014
7 | CCCCCCCCOC(CCCCCCC)O[Si](C)(C)OCCCCCCN(CCCCO)CCCCCCOC(=O)C(CCCCCC)CCCCCCCC (stereo not shown) [Example 139, 17-heptyl-7-(4-hydroxybutyl)-15,15-dimethyl-14,16,18-trioxa-7-aza-15-silahexacosyl 2-hexyldecanoate] | 94% | 11829351
8 | CCCCCCCCC(CCCCCC)C(=O)OCCCCCCN(CCCCO)CCCCCCO[Si](C)(C)OC(CCCCCCC)OCCCCCCC (stereo not shown) [Example 140, 17-heptyl-7-(4-hydroxybutyl)-15,15-dimethyl-14,16,18-trioxa-7-aza-15-silapentacosyl 2-hexyldecanoate] | 93% | 6292223
9 | CCCCCCCCCOC(CCCCCCC)O[Si](C)(C)OCCCCCCN(CCCCO)CCCCCCOC(=O)C(CCCCCC)CCCCCCCC (stereo not shown) [Example 141, 17-heptyl-7-(4-hydroxybutyl)-15,15-dimethyl-14,16,18-trioxa-7-aza-15-silaheptacosyl 2-hexyldecanoate] | 95% | 4651434
10 | CCCCCCCCOC(CCCCCC)O[Si](C)(C)OCCCCCCN(CCCCO)CCCCCCOC(=O)C(CCCCCC)CCCCCCCC (stereo not shown) [Example 142, 17-hexyl-7-(4-hydroxybutyl)-15,15-dimethyl-14,16,18-trioxa-7-aza-15-silahexacosyl 2-hexyldecanoate] | 96% | 5491290
11 | CCCCCCCCOC(CCCCCCCC)O[Si](C)(C)OCCCCCCN(CCCCO)CCCCCCOC(=O)C(CCCCCC)CCCCCCCC (stereo not shown) [Example 143, 7-(4-hydroxybutyl)-15,15-dimethyl-17-octyl-14,16,18-trioxa-7-aza-15-silahexacosyl 2-hexyldecanoate] | 95% | 4825007
12 | CCCCCCCCCC(OCCCCCC)O[Si](C)(C)OCCCCCCN(CCCCO)CCCCCCOC(=O)C(CCCCCC)CCCCCCCC (stereo not shown) [Example 144, 18-(4-hydroxybutyl)-10,10-dimethyl-8-nonyl-7,9,11-trioxa-18-aza-10-silatetracosan-24-yl 2-hexyldecanoate] | 97% | 5688575
13 | CCCCCCCCCCOC(CCCCC)O[Si](C)(C)OCCCCCCN(CCCCO)CCCCCCOC(=O)C(CCCCCC)CCCCCCCC (stereo not shown) [Example 145, 7-(4-hydroxybutyl)-15,15-dimethyl-17-pentyl-14,16,18-trioxa-7-aza-15-silaoctacosyl 2-hexyldecanoate] | 97% | 5735227
14 | CCCCCCCCOC(CCCCCCC)O[Si](C)(C)OCCCCCN(CCCCO)CCCCCCOC(=O)C(CCCCCC)CCCCCCCC (stereo not shown) [Example 146, 16-heptyl-7-(4-hydroxybutyl)-14,14-dimethyl-13,15,17-trioxa-7-aza-14-silapentacosyl 2-hexyldecanoate] | 97% | 5015757
15 | CCCCCCCCSC(CCCCCCC)O[Si](C)(C)OCCCCCCN(CCCCO)CCCCCCOC(=O)C(CCCCCC)CCCCCCCC (stereo not shown) [Example 147, 17-heptyl-7-(4-hydroxybutyl)-15,15-dimethyl-14,16-dioxa-18-thia-7-aza-15-silahexacosyl 2-hexyldecanoate] | 96% | 4302243
16 | CCCCCCCCCCSC(CCCC)C(=O)OCCCCCCN(CCCCO)CCCCCC(OCCCCCCCC)O[Si](C)(C)CCCCCCCC (stereo not shown) [Example 166, 6-((6-((dimethyl(octyl)silyl)oxy)-6-(octyloxy)hexyl)(4-hydroxybutyl)amino)hexyl 2-(decylthio)hexanoate] | 94% | 791474
17 | CCCCCCCCCCSC(CCCC)C(=O)OCCCCCCN(CCCCO)CCCCCC(OCCCCCCCC)O[Si](C)(C)OCCCCCCCC (stereo not shown) [Example 168, 7-(4-hydroxybutyl)-15,15-dimethyl-13-(octyloxy)-14,16-dioxa-7-aza-15-silatetracosyl 2-(decylthio)hexanoate] | 96% | 74333
